One data set has as its target MCL-1 (Homo sapiens, UniProt Q07820). The data set can be described thus: Protein-protein interaction assay MCL-1/Noxa BH3 peptide (MCL-1 assay), TR-FRET. The class given is binding. The note with it: MBP-MCL-1 / Noxa BH3-derived peptide, median. The essentials:
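MBP-MCL-1 (1 nM final) was preincubated 10 min at 22 °C with compounds (11 concentrations, 0.1 nM–20 μM, duplicates) in Tris pH 7 buffer with NaCl, KF, Tween-20, DTT and BGG. After 1 h at 22 °C in the dark plus overnight at 4 °C, anti-MBP Eu-cryptate/streptavidin-XL665 TR-FRET was read; IC50 came from a 4-parameter fit.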
In general terms: Time-resolved FRET reads energy transfer from a long-lived donor to a nearby acceptor.

The subject of data set [1] is SUDHL10. Kind of data set: Induction of caspase-3/7 activity (Caspase-Glo 3/7), SUDHL10. The note with it: caspase-3/7 induction, SUDHL10 cells, 3 h treatment, median. The class given is cell-based. The procedure, abridged: (§1)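 Caspase-Glo 3/7 luminescence measured after 3 h compound exposure at 37 °C in SUDHL10 and SUDHL5 cells. EC50 values come from background-corrected signals, with curve bottom set to 1 and plateau set to maximal induction by the reference compound.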

Data set [2] deals with SUDHL5. Kind of data set: Induction of caspase-3/7 activity (Caspase-Glo 3/7), SUDHL5. The conditions noted are these: caspase-3/7 induction, SUDHL5 cells, 3 h treatment, median. The class given is cell-based. The essentials: as §1
For another data set, the system named is A2780. The data set can be described thus: Anti-proliferative effect (CellTiter-Glo, 72 h), A2780. The class given is cell-based. The conditions noted are these: A2780 cells, median, read-out: IC50 antiproliferation assay A2780 [M] (median). The essentials: (§2)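 Anti-proliferative activity is derived from ATP-based luminescence (CellTiter-Glo) in cells exposed to compound for 72 h at 37 °C, set against a time zero plate read at seeding.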

In a further data set the test system is OPM2. Kind of data set: Anti-proliferative effect (CellTiter-Glo, 72 h), OPM2. The class given is cell-based. The note with it: OPM2 cells, median, read-out: IC50 antiproliferation assay OPM2 [M] (median). The procedure: Assessment of the Anti-Proliferative Effect of Compounds in Different Cell Lines
The impact of compounds on the proliferation of different cell lines was assessed using the CellTiter-Glo® Luminescent Cell Viability reagent from Promega (G7573). Of note, SUDHL10 and SUDHL5 (DLBCL), NCI-H929 (Multiple Myeloma), A2780 (ovarian carcinoma) as well as MV-4-11(AML) cells are sensitive to MCL-1 inhibition.
In parallel, cells were plated in a reference (day 0) plate for time zero determination.
Rim wells were excluded. The cells were incubated for 72 h hours in a humidified incubator at 37° C. The day 0 plate was measured by adding 30 μl/well of CTG solution (CellTiter-Glo® Luminescent Cell Viability reagent, Promega G7573) to time zero wells in the reference plate followed by a 10 minutes incubation and luminescence reading at 0.1 ms, using the PHERAstar FS microplate reader (BMG Labtech).
After 72 h incubation, the treated plates were measured in the same way as the day 0 plate mentioned above.
For orientation: Cellular ATP, detected with luciferase, serves as a proxy for viable cell number.

The subject of data set [3] is SUDHL10. The data set can be described thus: Anti-proliferative effect (CellTiter-Glo, 72 h), SUDHL10. The class given is cell-based. The conditions noted are these: SUDHL10 cells, antiproliferation, median, read-out: Antiproli SUDHL10 [M] (median). The procedure, abridged:
as §2

The subject of data set [4] is SUDHL5. Kind of data set: Induction of cytotoxicity (CellTiter-Glo, 5 h), SUDHL5.
Experimental: Therefore, cytotoxicity assays were run in parallel in SUDHL5 and SUDHL10 cells.
The different cell lines were plated in culture medium (RPMI 1640 [GIBCO #22400-089]supplemented with 10% Fetal Bovine Serum) at a density of 3.300 cells in 30 μl/well in a sterile, solid black, flat bottom, polystyrene, TC-treated 384-well microplate (Corning #3571) using Multidrop Combi Reagent Dispenser. As a control, medium without cells was also added to the plate. Cells were incubated in a humidified incubator at 37° C. overnight. On the next day, the cells were treated with compounds (stock solution, 10 mM in DMSO) using the HP D300 Digital Dispenser in a concentration range of 3.3×10e-5 M (33 μM) to 5×10e-9 M (5 nM) in a single-dot curve with at least 16 dilutions and a DMSO concentration of 0.33%. Rim wells were excluded. The cells were incubated for 5 h hours in a humidified incubator at 37° C. After this incubation, 30 μl of CellTiter-Glo@ Luminescent Cell Viability reagent (Promega, G7573) was added to each well using the Multidrop Combi Reagent Dispenser, followed by 15 min incubation on a shaker at room temperature. Finally, luminescence was read at 0.1 ms, with a gain of 3000 using the PHERAstar FS microplate reader (BMG Labtech).
The Bella DRC Master Sheet was used to calculate IC50s, with fixed CI=0 and C0=1.
Data set [5] has as its system SUDHL10. The data set can be described thus: Induction of cytotoxicity (CellTiter-Glo, 5 h), SUDHL10.
For data set [6], the system named is SUDHL5. The data set can be described thus: Anti-proliferative effect (CellTiter-Glo, 72 h), SUDHL5. The class given is cell-based. The conditions noted are these: SUDHL5 cells, antiproliferation, median, read-out: Antiproli SUDHL5 [M] (median). The procedure, abridged:
as §2

The mark [7] stands for this setting: read-out: Cytotox SUDHL5 [M] (median), SUDHL5 cells, cytotoxicity induction, CellTiter-Glo, 5 h incubation, median.
Where [8] appears, read: read-out: Cytotox SUDHL10 [M] (median), SUDHL10 cells, cytotoxicity induction, CellTiter-Glo, 5 h incubation, median.
Where [9] appears, read: read-out: Cytotox SUDHL5 [M] (median), SUDHL5 cells, cytotoxicity induction, CellTiter-Glo, 5 h, median.
Setting [10] is: read-out: Cytotox SUDHL10 [M] (median), SUDHL10 cells, cytotoxicity induction, CellTiter-Glo, 5 h, median.

“And” between values parts separate entries of the source, which are not always exact repeats. Equal entries are not always repeated. Where two headings read alike, the source gives them in different places.

MCL-1, sequence (Q07820 whole entry): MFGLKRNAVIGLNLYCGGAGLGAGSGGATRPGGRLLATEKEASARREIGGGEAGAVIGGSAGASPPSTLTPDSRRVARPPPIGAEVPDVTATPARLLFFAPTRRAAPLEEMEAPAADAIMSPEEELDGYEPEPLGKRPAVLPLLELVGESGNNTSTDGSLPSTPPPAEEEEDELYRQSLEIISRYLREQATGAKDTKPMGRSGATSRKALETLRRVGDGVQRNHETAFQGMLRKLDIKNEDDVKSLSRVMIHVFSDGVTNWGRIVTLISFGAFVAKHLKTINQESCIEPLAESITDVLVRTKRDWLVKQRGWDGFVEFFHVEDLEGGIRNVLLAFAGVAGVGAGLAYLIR

Turning to `CC(C)OCc1nn(C)c2c1-c1cccc3c(CCCOc4cccc5ccccc45)c(C(=O)O)n(c13)C/C=C\COC2` (racemic) [Example 1-68, (rac)-(11Z)-1-methyl-7-[3-(naphthalen-1-yloxy)propyl]-3-[(propan-2-yloxy)methyl]-1,10,13,15-tetrahydropyrazolo[4′,3′:9,10][1,6]oxazacycloundecino[8,7,6-hi]indole-8-carboxylic Acid], the IC50 on MCL-1 is 0.0269 µM; with A2780 (Homo sapiens, A2780, 72 h) it was 2.87e-05 M; in the data set with OPM2 (Homo sapiens, OPM-2, 72 h) it was greater than 3.3e-05 M. For the same compound, the EC50 in the data set with SUDHL10 [1] (Homo sapiens, SU-DHL10, 3 h) is greater than 33 µM; in the data set on SUDHL5 [2] (Homo sapiens, SU-DHL-5, 3 h), greater than 33 µM.

On to `COC1(c2ccc(OCc3nn(C)c4c3-c3cccc5c(CCCOc6cccc7ccccc67)c(C(=O)O)n(c35)CCCCOC4)cc2)CCOCC1` (single isomer, unassigned) [Example 1-66, 3-{[4-(4-methoxytetrahydro-2H-pyran-4-yl)phenoxy]methyl}-1-methyl-7-[3-(naphthalen-1-yloxy)propyl]-1,10,11,12,13,15-hexahydropyrazolo[4′,3′:9,10][1,6]oxazacycloundecino[8,7,6-hi]indole-8-carboxylic Acid], for which the IC50 on MCL-1 is 0.00943 µM; in the data set with SUDHL10 [3] (72 h incubation) it was 9.23e-06 M and 1.76e-05 M; with A2780 (Homo sapiens, A2780, 72 h) it was 1.22e-05 M; with OPM2 (Homo sapiens, OPM-2, 72 h), 1.18e-05 M. Besides, the values for the EC50 in the data set with SUDHL10 [1] and in the data set on SUDHL5 [2] were 8.47 µM and 6.15 µM, respectively.

Consider `CC(=O)N1CCN(c2ccc(OCc3nn(C)c4c3-c3cccc5c(CCCOc6cccc7ccccc67)c(C(=O)O)n(c35)CCCCOC4)cc2)CC1` (single isomer, unassigned; enantiomer 1) [Example 1-25, 3-{[4-(4-acetylpiperazin-1-yl)phenoxy]methyl}-1-methyl-7-[3-(naphthalen-1-yloxy)propyl]-1,10,11,12,13,15-hexahydropyrazolo[4′,3′:9,10][1,6]oxazacycloundecino[8,7,6-hi]indole-8-carboxylic Acid (Enantiomer 1)], for which the IC50 stood at 0.131 µM against MCL-1; 2.68e-06 M in the data set with SUDHL5 [4] (setting [7]); 4.02e-06 M with SUDHL10 [5] (setting [8]); 2.86e-05 M with SUDHL5 [6] (Homo sapiens, SU-DHL-5, 72 h, 72 h incubation); 1.7e-05 M in the data set on A2780 (Homo sapiens, A2780, 72 h); 1.08e-05 M in the data set with OPM2. The figures for the EC50 with SUDHL10 [1] and in the data set on SUDHL5 [2] were 3.89 µM and 1.61 µM, respectively.

Take `COCC(=O)N1CCN(c2ccc(OCc3nn(C)c4c3-c3cccc5c(CCCOc6cccc7ccccc67)c(C(=O)O)n(c35)CCCCOC4)cc2)CC1` (single isomer, unassigned; enantiomer 1) [Example 1-28, 3-({4-[4-(methoxyacetyl)piperazin-1-yl]phenoxy}methyl)-1-methyl-7-[3-(naphthalen-1-yloxy)propyl]-1,10,11,12,13,15-hexahydropyrazolo[4′,3′:9,10][1,6]oxazacycloundecino[8,7,6-hi]indole-8-carboxylic Acid (Enantiomer 1)]: the IC50 against MCL-1 is 0.0709 µM; with SUDHL5 [4] (setting [7]) it was greater than 3.3e-05 M; in the data set with SUDHL10 [5] (setting [8]), greater than 3.3e-05 M; in the data set with A2780 (Homo sapiens, A2780, 72 h), 3.12e-05 M; in the data set with OPM2, 1.98e-05 M. Besides, the EC50 in the data set on SUDHL10 [1] and in the data set with SUDHL5 [2] was greater than 33 µM each time.

For `CC(=O)N1CCN(c2ccc(OCc3nn(C)c4c3-c3cccc5c(CCCOc6cccc7ccccc67)c(C(=O)O)n(c35)CCCCOC4)cc2)CC1` (single isomer, unassigned; enantiomer 2) [Example 1-26, 3-{[4-(4-acetylpiperazin-1-yl)phenoxy]methyl}-1-methyl-7-[3-(naphthalen-1-yloxy)propyl]-1,10,11,12,13,15-hexahydropyrazolo[4′,3′:9,10][1,6]oxazacycloundecino[8,7,6-hi]indole-8-carboxylic Acid (Enantiomer 2)], the IC50 against MCL-1 was 0.00163 µM; with SUDHL5 [4] (setting [7]) it was greater than 3.3e-05 M; in the data set on SUDHL10 [5] (setting [8]), greater than 3.3e-05 M; with A2780 it was 2.48e-05 M; in the data set on OPM2, 2e-06 M. For the same compound, the EC50 with SUDHL10 [1] and in the data set with SUDHL5 [2] was greater than 33 µM each time.

As for `Cn1nc(CN2CCCC2=O)c2c1COCCCCn1c(C(=O)O)c(CCCOc3cccc4ccccc34)c3cccc-2c31` (single isomer, unassigned; enantiomer 2) [Example 329, 1-methyl-7-[3-(naphthalen-1-yloxy)propyl]-3-[(2-oxopyrrolidin-1-yl)methyl]-1,10,11,12,13,15-hexahydropyrazolo[4′,3′:9,10][1,6]oxazacycloundecino[8,7,6-hi]indole-8-carboxylic Acid (Enantiomer 2)], the IC50 against MCL-1 was 3 µM; with SUDHL5 [4] (Homo sapiens, SU-DHL-5, 5 h, read-out: Cytotox SUDHL5 [M] (median), SUDHL5 cells, cytotoxicity induction, CellTiter-Glo, 5 h, median), greater than 3.3e-05 M; in the data set on SUDHL10 [5] (Homo sapiens, SU-DHL10, 5 h, read-out: Cytotox SUDHL10 [M] (median), SUDHL10 cells, cytotoxicity induction, CellTiter-Glo, 5 h, median) it was greater than 3.3e-05 M; with SUDHL10 [3] (Homo sapiens, SU-DHL10, 72 h, 72 h), greater than 3.3e-05 M; in the data set with SUDHL5 [6] (Homo sapiens, SU-DHL-5, 72 h, 72 h), greater than 3.3e-05 M; in the data set on A2780 (Homo sapiens, A2780, 72 h), greater than 3.3e-05 M. Further, the EC50 in the data set with SUDHL10 [1] (Homo sapiens, SU-DHL10, 3 h) was greater than 33 µM; with SUDHL5 [2] (Homo sapiens, SU-DHL-5, 3 h), greater than 33 µM.

As to `Cn1nc(CN2CCCC2)c2c1COCCCCn1c(C(=O)O)c(CCCOc3cccc4ccccc34)c3cccc-2c31` (single isomer, unassigned; enantiomer 2) [Example 337, 1-methyl-7-[3-(naphthalen-1-yloxy)propyl]-3-(pyrrolidin-1-ylmethyl)-1,10,11,12,13,15-hexahydropyrazolo[4′3′:9,10][1,6]oxazacycloundecino[8,7,6-hi]indole-carboxylic Acid (Enantiomer 2)], the IC50 was 0.977 µM against MCL-1; greater than 3.3e-05 M in the data set with SUDHL5 [4] (setting [9]); greater than 3.3e-05 M with SUDHL10 [5] (setting [10]); greater than 3.3e-05 M in the data set with SUDHL10 [3] (72 h); 1.97e-05 M in the data set with SUDHL5 [6] (72 h); greater than 3.3e-05 M with A2780. Further, the EC50 in the data set with SUDHL10 [1] and in the data set on SUDHL5 [2] was greater than 33 µM each time.

For the compound `CC(=O)NCc1nn(C)c2c1-c1cccc3c(CCCOc4cccc5ccccc45)c(C(=O)O)n(c13)CCCCOC2` (single isomer, unassigned; enantiomer 2) [Example 341, 3-[(acetylamino)methyl]-1-methyl-7-[3-(naphthalen-1-yloxy)propyl]-1,10,11,12,13,15-hexahydropyrazolo[4′3′:9,10][1,6]oxazacycloundecino[8,7,6-hi]indole-cararboxylic Acid (Enantiomer 2)], the IC50 on MCL-1 was 0.651 µM; in the data set with SUDHL5 [4] (setting [9]), 2.64e-05 M; with SUDHL10 [5] (setting [10]), greater than 3.3e-05 M; with SUDHL10 [3] (72 h) it was greater than 3.3e-05 M; with SUDHL5 [6] (72 h) it was 6.48e-06 M; with A2780, greater than 3.3e-05 M. Besides, the EC50 with SUDHL10 [1] and in the data set on SUDHL5 [2] was greater than 33 µM in each case.

In general, EC50 refers to the concentration that produces a half-maximal response. A high value points to a need for much substance.

The record behind these values is patent US10981932B2, “Macrocyclic indole derivatives” (Bayer Aktiengesellschaft, priority 2016, dated 2021).
